In patent US20240374573A1, “IMIDAZOLE CONTAINING COMPOUNDS, DERIVATIVES THEREFORE, AND USES THEREOF” (AglaeaPharma Inc., priority 2023, published 2024):

Tests used:
[1] = biological target: T1, α2AAR (α2A-adrenergic receptor) (Homo sapiens, UniProt P08913); experiment: α2AAR FLIPR assay (agonist activity); assay type: cell-based; conditions: FLIPR, α2AAR cell line hosted in HEK293 cells; read-out: α2A agonist activity (EC50)
T1 construct: expressed in transfected cells; host or cells: HEK293
T1 sequence (P08913 1-465): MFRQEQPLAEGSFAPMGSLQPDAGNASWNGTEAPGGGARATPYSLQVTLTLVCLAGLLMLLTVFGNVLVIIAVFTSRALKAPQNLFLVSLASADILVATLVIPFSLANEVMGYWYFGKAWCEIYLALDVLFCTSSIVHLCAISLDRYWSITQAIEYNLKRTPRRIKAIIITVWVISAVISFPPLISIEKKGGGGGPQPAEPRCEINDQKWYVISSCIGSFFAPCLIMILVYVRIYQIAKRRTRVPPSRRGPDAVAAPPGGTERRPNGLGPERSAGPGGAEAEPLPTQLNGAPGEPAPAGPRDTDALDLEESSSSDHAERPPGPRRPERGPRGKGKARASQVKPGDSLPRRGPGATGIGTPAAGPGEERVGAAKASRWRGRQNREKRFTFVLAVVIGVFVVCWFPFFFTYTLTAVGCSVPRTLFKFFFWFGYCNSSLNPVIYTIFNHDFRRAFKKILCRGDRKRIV
Protocol: This experimental protocol involved cell seeding and a FLIPR assay using the α2AAR (α2A-adrenergic receptor) cell line hosted in HEK293 cells. […] On Day 1, the cell seeding process started with the removal of the culture medium, followed by rinsing the cells with DPBS (21-031-CVC, Corning). […] The cells were detached, resuspended in growth media, and centrifuged at room temperature at 1000 rpm for 5 minutes. After discarding the supernatant, the cell pellet was resuspended in growth media to a concentration of 10× 10^5 cells per mL. This suspension was added to 384-well plates (19-Jul-38, Greiner) at 20 μL per well and incubated overnight at 37° C. in 5% CO2.
A 250 mM Probenecid solution was prepared in this buffer. The Fluo-4 Direct™ Loading Buffer was made by dissolving Fluo-4 Direct™ crystals (F10471, Invitrogen) in the FLIPR Assay Buffer and adding Probenecid. The buffer was then vortexed and allowed to stand for over 5 minutes, shielded from light. For the FLIPR procedure, testing compounds for agonist activite were serially diluted and transferred to a 384-well compound plate (25-Jan-39, Greiner). The cell plate was then treated with 2× Fluo-4 Direct™ loading buffer and incubated for 50 minutes at 37° C. in a 5% CO2 atmosphere, followed by 10 minutes at room temperature. Subsequently, the FLIPR assay buffer was added to the compound plate, which is then centrifuged.
The cell plate was analyzed in the FLIPR Tetra+ System for fluorescence signals. For the agonist test, reference compounds were added to the cell plates, and fluorescence was measured. The “Max-Min” calculation began from Read 1 to the maximum allowed. The data were analyzed using Prism software to calculate activation percentage for agonists and inhibition percentage for antagonists. The results were then fitted using specific models to determine EC50 for agonists.
The experimental protocol utilized various reagents and apparatus, including Penicillin/Streptomycin (100×) (SV30010, Hyclone), Poly-L-lysine hydrobromide (P1399, Sigma), and different types of 384-well plates such as the 384-Well PP 2.0 Microplate (PP-0200, LABCYTE) and 384 well Low Dead Volume Microplate (LP-0200, LABCYTE). The use of specific reference compounds like UK14304 was also integral to the assay.

α2AAR = biological target: T2, α2AAR (Homo sapiens, UniProt P08913); experiment: α2AAR binding assay ([3H]-RX 821002 radioligand); conditions: [3H]-RX 821002 0.5 nM, HEK293 membranes; read-out: α2A affinity (Ki)
T2 construct: host or cells: HEK293 (membranes)
T2 sequence (P08913 1-465): T1 sequence (P08913 1-465)

Row | SMILES | EC50 [1] | Ki (α2AAR)
1 | Cc1cccc(C(Cc2cccc(NS(C)(=O)=O)c2)c2c[nH]cn2)c1C (stereo not drawn) [compound 76] | 50 to 250 nM | < 10 nM
2 | Cc1cccc(C(c2cccc(NC(=O)CC3CCNC3)c2)c2c[nH]cn2)c1C (stereo not drawn) [compound 79] | 50 to 250 nM | 10 to 50 nM
3 | Cc1cccc(C(c2cccc(C(=O)CCC#N)c2)c2c[nH]cn2)c1C (stereo not drawn) [compound 85] | 50 to 250 nM | 10 to 50 nM
4 | Cc1cccc(C(c2cccc(NS(=O)(=O)CC3CCOC3)c2)c2c[nH]cn2)c1C (stereo not drawn) [compound 86] | 10 to 50 nM | < 10 nM
5 | Cc1cccc(C(c2cccc(NC(=O)CCCN3CCOCC3)c2)c2c[nH]cn2)c1C (stereo not drawn) [compound 88] | 50 to 250 nM | 10 to 50 nM
6 | Cc1cccc(C(c2cccc(NC(=O)CCN3CCCC3)c2)c2c[nH]cn2)c1C (stereo not drawn) [compound 89] | 50 to 250 nM | 10 to 50 nM
7 | Cc1cccc(C(c2cccc(NC(=O)CCN3CCNCC3)c2)c2c[nH]cn2)c1C (stereo not drawn) [compound 90] | 50 to 250 nM | 50 to 250 nM
8 | Cc1cccc(C(c2cccc(NS(=O)(=O)CCN3CCOCC3)c2)c2c[nH]cn2)c1C (stereo not drawn) [compound 94] | 50 to 250 nM | 50 to 250 nM
9 | Cc1cccc(C(c2cccc(NC(=O)CC3CCCCO3)c2)c2c[nH]cn2)c1C (stereo not drawn) [compound 96] | 10 to 50 nM | < 10 nM
10 | CC(=O)N1CCC(CC(=O)Nc2cccc(C(c3c[nH]cn3)c3cccc(C)c3C)c2)CC1 (stereo not drawn) [compound 102] | 10 to 50 nM | 10 to 50 nM
11 | Cc1cccc(C(c2cccc(NC(=O)CC3CCCOC3)c2)c2c[nH]cn2)c1C (stereo not drawn) [compound 104] | 10 to 50 nM | < 10 nM
12 | Cc1cccc(C(c2cccc(NC(=O)CC3CCS(=O)(=O)CC3)c2)c2c[nH]cn2)c1C (stereo not drawn) [compound 117] | < 10 nM | 10 to 50 nM
13 | Cc1cccc(C(c2cccc(NS(=O)(=O)CC3CCOCC3)c2)c2c[nH]cn2)c1C (stereo not drawn) [compound 119] | 10 to 50 nM | < 10 nM
14 | Cc1cccc(C(c2cccc(NC(=O)CC3=CCOCC3)c2)c2c[nH]cn2)c1C (stereo not drawn) [compound 120] | < 10 nM | < 10 nM
15 | Cc1cccc(C(c2cccc(NC(=O)CN3CCC(O)CC3)c2)c2c[nH]cn2)c1C (stereo not drawn) [compound 123] | 10 to 50 nM | < 10 nM
16 | Cc1cccc(C(c2c[nH]cn2)c2cccc(C(=O)NCC3CCOCC3)c2F)c1C (stereo not drawn) [compound 124] | 10 to 50 nM | < 10 nM
17 | CCOP(=O)(OCC)c1cccc(C(c2c[nH]cn2)c2cccc(C)c2C)c1 (stereo not drawn) [compound 126] | 10 to 50 nM | < 10 nM
18 | Cc1cccc(C(c2cccc(S(N)(=O)=O)c2)c2c[nH]cn2)c1C (stereo not drawn) [compound 133] | 10 to 50 nM | 10 to 50 nM
19 | Cc1cccc(C(Cc2cccc(NS(=O)(=O)C3CCOCC3)c2)c2c[nH]cn2)c1C (stereo not drawn) [compound 134] | 10 to 50 nM | < 10 nM
20 | Cc1cccc(C(COCCNS(=O)(=O)CC2CCOCC2)c2c[nH]cn2)c1C (stereo not drawn) [compound 139] | 10 to 50 nM | 10 to 50 nM
21 | Cc1cccc(C(c2cccc(NC(=O)CC[n+]3ccccc3)c2)c2c[nH]cn2)c1C (stereo not drawn) [compound 143] | 50 to 250 nM | 10 to 50 nM
22 | Cc1cccc(C(c2cccc(C(=O)NOC3CCOCC3)c2)c2c[nH]cn2)c1C (stereo not drawn) [compound 145] | 10 to 50 nM | < 10 nM
23 | CNC(=O)Nc1cccc(C(c2c[nH]cn2)c2cccc(C)c2C)n1 (stereo not drawn) [compound 146] | 10 to 50 nM | 10 to 50 nM

Row | SMILES | EC50 [1] | Ki (α2AAR)
24 | COCCC(=O)Nc1cccc(C(c2c[nH]cn2)c2cccc(C)c2C)c1 (stereo not drawn) [compound 147] | 10 to 50 nM | 10 to 50 nM
25 | COCCCC(=O)Nc1cccc(C(c2c[nH]cn2)c2cccc(C)c2C)c1 (stereo not drawn) [compound 148] | 10 to 50 nM | 10 to 50 nM
26 | Cc1cccc(C(c2cccc(NC(=O)C3CCOCC3)c2)c2c[nH]cn2)c1C (stereo not drawn) [compound 149] | 10 to 50 nM | 10 to 50 nM
27 | Cc1cccc(C(c2c[nH]cn2)c2cccc(C(=O)NOC3CCOCC3)n2)c1C (stereo not drawn) [compound 152] | 10 to 50 nM | < 10 nM
28 | Cc1cccc(C(c2cccc(NC(=O)CC3CCCO3)c2)c2c[nH]cn2)c1C (stereo not drawn) [compound 153] | 10 to 50 nM | 10 to 50 nM
29 | Cc1cccc(C(Cc2ccc(NC(=O)C3CCOCC3)cc2)c2c[nH]cn2)c1C (stereo not drawn) [compound 157] | < 10 nM | < 10 nM
30 | Cc1cn(-c2cccc(C(c3c[nH]cn3)c3cccc(C)c3C)c2)nn1 (stereo not drawn) [compound 160] | 10 to 50 nM | 10 to 50 nM
31 | Cc1cccc(C(c2cccc(NC(=S)CC3CCOCC3)c2)c2c[nH]cn2)c1C (stereo not drawn) [compound 161] | 10 to 50 nM | < 10 nM
32 | Cc1cccc(C(c2cccc(S(=O)(=O)NC3CCOCC3)c2)c2c[nH]cn2)c1C (stereo not drawn) [compound 162] | 10 to 50 nM | < 10 nM
33 | Cc1cccc(C(c2cccc(-c3cnnn3C)c2)c2c[nH]cn2)c1C (stereo not drawn) [compound 164] | 10 to 50 nM | 10 to 50 nM
34 | Cc1cccc(C(c2cccc(NS(=O)(=O)C[C@H]3CCCO3)c2)c2c[nH]cn2)c1C (stereo partly drawn) [compound 166] | 10 to 50 nM | 10 to 50 nM
35 | COP(=O)(CC1CCOCC1)Nc1cccc(C(c2c[nH]cn2)c2cccc(C)c2C)c1 (stereo not drawn) [compound 167] | 10 to 50 nM | 10 to 50 nM
36 | Cc1cccc(C(Cc2ccc(NC(=O)CC3CCCCO3)cc2)c2c[nH]cn2)c1C (stereo not drawn) [compound 169] | < 10 nM | < 10 nM
37 | Cc1cccc(C(Cc2ccc(NC(=O)CC3CCOC3)cc2)c2c[nH]cn2)c1C (stereo not drawn) [compound 171] | < 10 nM | < 10 nM
38 | Cc1cccc(C(Cc2ccc(C(C)C(=O)O)cc2)c2c[nH]cn2)c1C (stereo not drawn) [compound 174] | 10 to 50 nM | 50 to 250 nM
39 | Cc1cccc(C(Cc2ccc(C(=O)O)cc2)c2c[nH]cn2)c1C (stereo not drawn) [compound 175] | 10 to 50 nM | 250 to 1000 nM
40 | Cc1cccc(C(Cc2ccc(NC(=O)CC3CCCO3)cc2)c2c[nH]cn2)c1C (stereo not drawn) [compound 176] | < 10 nM | < 10 nM
41 | Cc1cccc(C(Cc2ccc(C(=O)NC3CCOCC3)cc2)c2c[nH]cn2)c1C (stereo not drawn) [compound 177] | < 10 nM | 10 to 50 nM
42 | Cc1cccc(C(Cc2ccc(S(=O)(=O)NC3COC3)cc2)c2c[nH]cn2)c1C (stereo not drawn) [compound 179] | < 10 nM | < 10 nM
43 | Cc1cccc(C(c2cccc(NC(=O)N3CCCCC3)c2)c2c[nH]cn2)c1C (stereo not drawn) [compound 180] | 10 to 50 nM | 10 to 50 nM
44 | Cc1cccc(C(Cc2ccc(NC(=O)CC3CCCCC3)cc2)c2c[nH]cn2)c1C (stereo not drawn) [compound 181] | 50 to 250 nM | < 10 nM
45 | CNC(=O)c1ccc(CC(c2c[nH]cn2)c2cccc(C)c2C)cc1F (stereo not drawn) [compound 192] | 10 to 50 nM | < 10 nM
